Experimental data: ChEMBL document CHEMBL1201862, “PubChem BioAssay data set” (2004)
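Grown in 96-well plates, cells were treated for 48 hours with each compound at five concentrations. Insufficient inhibition: endpoint recorded as highest concentration tested. Here, GI50 denotes the concentration required for 50% inhibition of growth.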 Calls of active or inactive are those of the source. Cut-off read from the data, not from the text of the source: active = GI50 up to about 1.1 µM and inactive = higher.

Key:
Experiment in all cases: growth of human tumour cells (NCI), 48 h
SF-539 = test system: SF-539
HCT-15 = test system: HCT-15
786-0 = test system: 786-0
SNB-75 = test system: SNB-75
T47D = test system: T47D
SF-295 = test system: SF-295
RXF 393 = test system: RXF 393
UACC-257 = test system: UACC-257
SF-268 = test system: SF-268
KM12 = test system: KM12
HT-29 = test system: HT-29
U-251 = test system: U-251
UO-31 = test system: UO-31
SK-OV-3 = test system: SK-OV-3
OVCAR-4 = test system: OVCAR-4
SR = test system: SR
M14 = test system: M14
SW-620 = test system: SW-620
EKVX = test system: EKVX
MDA-MB-435 = test system: MDA-MB-435
NCI-H226 = test system: NCI-H226
HOP-62 = test system: HOP-62
BT-549 = test system: BT-549
SN12C = test system: SN12C
SK-MEL-28 = test system: SK-MEL-28
HOP-92 = test system: HOP-92
UACC-62 = test system: UACC-62
SK-MEL-2 = test system: SK-MEL-2
TK-10 = test system: TK-10
IGROV-1 = test system: IGROV-1
K562 = test system: K562
COLO 205 = test system: COLO 205
OVCAR-3 = test system: OVCAR-3
CAKI-1 = test system: CAKI-1
MCF7 = test system: MCF7
PC-3 = test system: PC-3
MDA-MB-231 = test system: MDA-MB-231
CCRF-CEM = test system: CCRF-CEM
OVCAR-5 = test system: OVCAR-5
NCI-H23 = test system: NCI-H23
DU-145 = test system: DU-145
SK-MEL-5 = test system: SK-MEL-5
NCI-H522 = test system: NCI-H522
HCT-116 = test system: HCT-116
HCC 2998 = test system: HCC 2998
NCI-H460 = test system: NCI-H460
RPMI-8226 = test system: RPMI-8226
ACHN = test system: ACHN
SNB-19 = test system: SNB-19
MDA-N = test system: MDA-N
A549 = test system: A549
OVCAR-8 = test system: OVCAR-8
MOLT-4 = test system: MOLT-4
NCI/ADR-RES = test system: NCI/ADR-RES
LOX IMVI = test system: LOX IMVI
A498 = test system: A498
Malme-3M = test system: Malme-3M

NC(=O)C(=O)C(c1ccccc1)S(=O)(=O)Cc1ccccc1 (centres undefined)
GI50 (SF-539): > 100 µM (inactive)
GI50 (HCT-15): > 100 µM
GI50 (786-0): > 100 µM (inactive)
GI50 (SNB-75): > 82 µM (inactive)
GI50 (T47D): > 100 µM (inactive)
GI50 (SF-295): > 100 µM (inactive)
GI50 (RXF 393): > 100 µM (inactive)
GI50 (UACC-257): > 100 µM (inactive)
GI50 (SF-268): > 100 µM (inactive)
GI50 (KM12): > 100 µM (inactive)
GI50 (HT-29): > 100 µM (inactive)
GI50 (U-251): > 100 µM (inactive)
GI50 (UO-31): > 100 µM (inactive)
GI50 (SK-OV-3): > 100 µM (inactive)
GI50 (OVCAR-4): > 100 µM (inactive)
GI50 (SR): > 100 µM (inactive)
GI50 (M14): > 100 µM (inactive)
GI50 (SW-620): > 100 µM (inactive)
GI50 (EKVX): > 100 µM (inactive)
GI50 (MDA-MB-435): > 100 µM (inactive)
GI50 (NCI-H226): > 100 µM (inactive)
GI50 (HOP-62): > 100 µM (inactive)
GI50 (BT-549): > 100 µM (inactive)
GI50 (SN12C): > 100 µM (inactive)
GI50 (SK-MEL-28): > 100 µM (inactive)
GI50 (HOP-92): > 100 µM (inactive)
GI50 (UACC-62): > 100 µM (inactive)
GI50 (SK-MEL-2): > 100 µM (inactive)
GI50 (TK-10): > 100 µM (inactive)
GI50 (IGROV-1): > 100 µM (inactive)
GI50 (K562): > 100 µM (inactive)
GI50 (COLO 205): > 100 µM (inactive)
GI50 (OVCAR-3): > 100 µM (inactive)
GI50 (CAKI-1): > 100 µM (inactive)
GI50 (MCF7): > 100 µM (inactive)
GI50 (PC-3): > 100 µM (inactive)
GI50 (MDA-MB-231): > 100 µM (inactive)
GI50 (CCRF-CEM): > 100 µM (inactive)
GI50 (OVCAR-5): > 100 µM (inactive)
GI50 (NCI-H23): > 100 µM (inactive)
GI50 (DU-145): > 100 µM (inactive)
GI50 (SK-MEL-5): > 100 µM (inactive)
GI50 (NCI-H522): > 100 µM (inactive)
GI50 (HCT-116): > 100 µM (inactive)
GI50 (HCC 2998): > 100 µM (inactive)
GI50 (NCI-H460): > 100 µM (inactive)
GI50 (RPMI-8226): > 100 µM (inactive)
GI50 (ACHN): > 100 µM (inactive)
GI50 (SNB-19): > 100 µM (inactive)
GI50 (MDA-N): > 100 µM (inactive)
GI50 (A549): > 100 µM (inactive)
GI50 (OVCAR-8): > 100 µM (inactive)
GI50 (MOLT-4): 16.5 µM (inactive)
GI50 (NCI/ADR-RES): > 100 µM (inactive)
GI50 (LOX IMVI): > 100 µM (inactive)

COc1ccc(-c2cc(-c3ccc(Nc4ccnc5cc(Cl)ccc45)cc3)nc(N)c2C#N)c2ccccc12
GI50 (SF-539): > 100 µM (inactive)
GI50 (HCT-15): > 100 µM
GI50 (786-0): > 100 µM (inactive)
GI50 (SNB-75): > 100 µM (inactive)
GI50 (T47D): > 100 µM (inactive)
GI50 (SF-295): > 100 µM (inactive)
GI50 (RXF 393): > 100 µM (inactive)
GI50 (UACC-257): > 100 µM (inactive)
GI50 (SF-268): > 100 µM (inactive)
GI50 (KM12): > 100 µM (inactive)
GI50 (HT-29): > 100 µM (inactive)
GI50 (U-251): > 100 µM (inactive)
GI50 (UO-31): > 100 µM (inactive)
GI50 (OVCAR-4): > 100 µM (inactive)
GI50 (SR): > 100 µM (inactive)
GI50 (M14): > 100 µM (inactive)
GI50 (SW-620): > 100 µM (inactive)
GI50 (EKVX): > 100 µM (inactive)
GI50 (MDA-MB-435): > 100 µM (inactive)
GI50 (A498): > 100 µM (inactive)
GI50 (NCI-H226): > 100 µM (inactive)
GI50 (HOP-62): > 100 µM (inactive)
GI50 (BT-549): > 100 µM (inactive)
GI50 (SN12C): > 100 µM (inactive)
GI50 (SK-MEL-28): > 100 µM (inactive)
GI50 (UACC-62): > 100 µM (inactive)
GI50 (SK-MEL-2): > 100 µM (inactive)
GI50 (TK-10): > 100 µM (inactive)
GI50 (IGROV-1): > 100 µM (inactive)
GI50 (K562): > 100 µM (inactive)
GI50 (COLO 205): > 100 µM (inactive)
GI50 (CAKI-1): > 100 µM (inactive)
GI50 (MCF7): > 100 µM (inactive)
GI50 (PC-3): > 100 µM (inactive)
GI50 (MDA-MB-231): > 100 µM (inactive)
GI50 (CCRF-CEM): > 100 µM (inactive)
GI50 (OVCAR-5): > 100 µM (inactive)
GI50 (NCI-H23): > 100 µM (inactive)
GI50 (DU-145): > 100 µM (inactive)
GI50 (SK-MEL-5): > 100 µM (inactive)
GI50 (NCI-H522): > 100 µM (inactive)
GI50 (HCT-116): > 100 µM (inactive)
GI50 (HCC 2998): > 100 µM (inactive)
GI50 (NCI-H460): > 100 µM (inactive)
GI50 (RPMI-8226): > 100 µM (inactive)
GI50 (ACHN): > 100 µM (inactive)
GI50 (SNB-19): > 100 µM (inactive)
GI50 (Malme-3M): > 100 µM (inactive)
GI50 (MDA-N): > 100 µM (inactive)
GI50 (A549): > 100 µM (inactive)
GI50 (OVCAR-8): > 100 µM (inactive)
GI50 (MOLT-4): > 100 µM (inactive)
GI50 (NCI/ADR-RES): > 100 µM (inactive)
GI50 (LOX IMVI): > 100 µM (inactive)
